The values below come from patent US8507535B2 (Hoffmann-La Roche Inc., priority 2010, dated 2013).

The structures appear in SMILES notation. Read-outs that look alike come from different tables or passages of the source.

The target in this experiment is human NK3 receptor (Homo sapiens (Human), UniProt P29371). The experiment is described as follows: [3H]SR142801 competition binding assay. Particulars: membranes from HEK293 cells transiently expressing recombinant human NK3 receptor, [3H]SR142801 radioligand. The protocol: [^3H]SR142801 Competition Binding Assay
hNK3 receptor binding experiment were performed using [^3H]SR142801 (Catalog No. TRK1035, specific activity: 74.0 Ci/mmol, Amersham, GE Healthcare UK limited, Buckinghamshire, UK) and membrane isolated from HEK293 cells transiently expressing recombinant human NK3 receptor. After thawing, the membrane homogenates were centrifuged at 48,000×g for 10 min at 4° C., the pellets were resuspended in the 50 mM Tris-HCl, 4 mM MnCl2, 1 μM phosphoramidon, 0.1% BSA binding buffer at pH 7.4 to a final assay concentration of 5 μg protein/well. For inhibition experiments, membranes were incubated with [^3H]SR142801 at a concentration equal to KD value of radioligand and 10 concentrations of the inhibitory compound (0.0003-10 μM) (in a total reaction volume of 500 μl) for 75 min at room temperature (RT). At the end of the incubation, membranes were filtered onto unitfilter (96-well white microplate with bonded GF/C filter preincubated 1 h in 0.3% PEI+0.3% BSA, Packard BioScience, Meriden, Conn.) with a Filtermate 196 harvester (Packard BioScience) and washed 4 times with ice-cold 50 mM Tris-HCl, pH 7.4 buffer. Nonspecific binding was measured in the presence of 10 μM SB222200 for both radioligands. The radioactivity on the filter was counted (5 min) on a Packard Top-count microplate scintillation counter with quenching correction after addition of 45 μl of microscint 40 (Can berra Packard S. A., Zurich, Switzerland) and shaking for 1 h. Inhibition curves were fitted according to the Hill equation: y=100/(1+(x/IC50)^nH), where nH=slope factor using Excel-fit 4 software (Microsoft). IC50 values were derived from the inhibition curve and the affinity constant (Ki) values were calculated using the Cheng-Prussoff equation Ki=IC50/(1+[L]/KD) where [L] is the concentration of radioligand and KD is its dissociation constant at the receptor, derived from the saturation isotherm. All experiments were performed in duplicate and the mean±standard error (SEM) of the individual Ki values was calculated.

Setting [1] is: second half of table, head prints nM, read-out: Ki (nM) hNK3.

human NK3 receptor, sequence (P29371 whole entry): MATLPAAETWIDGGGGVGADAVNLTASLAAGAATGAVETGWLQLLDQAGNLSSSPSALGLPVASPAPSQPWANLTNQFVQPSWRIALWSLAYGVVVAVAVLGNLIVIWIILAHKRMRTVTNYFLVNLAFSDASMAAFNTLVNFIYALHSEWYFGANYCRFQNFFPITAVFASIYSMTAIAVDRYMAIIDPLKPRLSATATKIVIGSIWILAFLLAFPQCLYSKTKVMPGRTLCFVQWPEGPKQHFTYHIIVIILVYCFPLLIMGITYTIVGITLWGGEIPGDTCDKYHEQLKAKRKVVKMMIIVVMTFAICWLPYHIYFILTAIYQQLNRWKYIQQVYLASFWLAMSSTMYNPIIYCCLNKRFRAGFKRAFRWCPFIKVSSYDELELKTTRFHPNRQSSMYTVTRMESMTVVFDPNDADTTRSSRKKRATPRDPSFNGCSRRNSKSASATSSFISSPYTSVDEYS

Usually Ki stands for the equilibrium dissociation constant of an inhibitor or competing ligand from its target. In the case of `C[C@]1(COc2ccc(Cl)cn2)CN(C(=O)N2CCN(S(C)(=O)=O)CC2)C[C@@H]1c1ccc(Cl)cc1` (racemic) [Example 2, [(3RS,4RS)-4-(4-Chloro-phenyl)-3-(5-chloro-pyridin-2-yloxymethyl)-3-methyl-pyrrolidin-1-yl]-(4-methanesulfonyl-piperazin-1-yl)-methanone], for the setting “read-out: Ki (uM) hNK3”, the Ki amounted to 0.0478 µM.
`COc1ccc(N2CCC(C(=O)N3C[C@H](c4ccc(Cl)cc4)[C@@](C)(COc4ccc(Cl)cn4)C3)CC2)nn1` [Example 26, [(3R,4R)-4-(4-Chloro-phenyl)-3-(5-chloro-pyridin-2-yloxymethyl)-3-methyl-pyrrolidin-1-yl]-[1-(6-methoxy-pyridazin-3-yl)-piperidin-4-yl]-methanone]: the Ki under setting [1] amounted to 0.0114 µM.
In the case of `COc1ccc(C(=O)N2C[C@H](c3ccc(Cl)cc3)[C@@](C)(COc3ccc(Cl)cn3)C2)cn1` (racemic) [Example 9, [(3RS,4RS)-4-(4-Chloro-phenyl)-3-(5-chloro-pyridin-2-yloxymethyl)-3-methyl-pyrrolidin-1-yl]-(6-methoxy-pyridin-3-yl)-methanone], under “read-out: Ki (uM) hNK3”, the Ki was 0.0563 µM.
In the case of `C[C@]1(COc2ccc(Cl)cn2)CN(C(=O)C2CCN(c3ccc(Cl)cn3)CC2)C[C@@H]1c1ccc(Cl)cc1` (racemic) [Example 20, [(3RS,4RS)-4-(4-Chloro-phenyl)-3-(5-chloro-pyridin-2-yloxymethyl)-3-methyl-pyrrolidin-1-yl]-(5′-chloro-3,4,5,6-tetrahydro-2H-[1,2′]bipyridinyl-4-yl)-methanone], under setting [1], the Ki was found to be 0.0193 µM.
On to `Cc1noc(-c2ccc(C(=O)N3C[C@H](c4ccc(Cl)cc4)[C@@](C)(COc4ccc(Cl)cn4)C3)cc2)n1` (racemic) [Example 7, [(3RS,4RS)-4-(4-Chloro-phenyl)-3-(5-chloro-pyridin-2-yloxymethyl)-3-methyl-pyrrolidin-1-yl]-[4-(3-methyl-[1,2,4]oxadiazol-5-yl)-phenyl]-methanone], for which the Ki (read-out: Ki (uM) hNK3) was determined as 0.0043 µM.
Consider `CC1(C(=O)N2CCC(C(=O)N3C[C@H](c4ccc(Cl)cc4)[C@@](C)(COc4ccc(Cl)cn4)C3)CC2)CC1` (racemic) [Example 3, [(3RS,4RS)-4-(4-Chloro-phenyl)-3-(5-chloro-pyridin-2-yloxymethyl)-3-methyl-pyrrolidin-1-yl]-[1-(1-methyl-cyclopropanecarbonyl)-piperidin-4-yl]-methanone], for which, where the note is “read-out: Ki (uM) hNK3”, the Ki turned out to be 0.0072 µM.
As to `C[C@]1(COc2ccc(Cl)cn2)CN(C(=O)C2CCN(c3ccc(C#N)cc3)CC2)C[C@@H]1c1ccc(Cl)cc1` (racemic) [Example 17, 4-{4-[(3RS,4RS)-4-(4-Chloro-phenyl)-3-(5-chloro-pyridin-2-yloxymethyl)-3-methyl-pyrrolidine-1-carbonyl]-piperidin-1-yl}-benzonitrile], the Ki under setting [1] amounted to 0.0023 µM.
Consider `C[C@]1(COc2ccc(Cl)cn2)CN(C(=O)C2CCN(c3ccc(C(F)(F)F)cn3)CC2)C[C@@H]1c1ccc(Cl)cc1` (racemic) [Example 22, [(3RS,4RS)-4-(4-Chloro-phenyl)-3-(5-chloro-pyridin-2-yloxymethyl)-3-methyl-pyrrolidin-1-yl]-(5′-trifluoromethyl-3,4,5,6-tetrahydro-2H-[1,2′]bipyridinyl-4-yl)-methanone], for which the Ki under setting [1] was 0.0272 µM.
Regarding `C[C@]1(COc2ccc(Cl)cn2)CN(C(=O)c2ccc(N3CCCCC3=O)cc2)C[C@@H]1c1ccc(Cl)cc1` (racemic) [Example 27, 1-{4-[(3RS,4RS)-4-(4-Chloro-phenyl)-3-(5-chloro-pyridin-2-yloxymethyl)-3-methyl-pyrrolidine-1-carbonyl]-phenyl}-piperidin-2-one], the inhibitory constant (Ki) under setting [1] stood at 0.0931 µM.
As to `Cc1nc(-c2ccc(C(=O)N3C[C@H](c4ccc(Cl)cc4)[C@@](C)(COc4ccc(Cl)cn4)C3)cc2)no1` (racemic) [Example 24, [(3RS,4RS)-4-(4-Chloro-phenyl)-3-(5-chloro-pyridin-2-yloxymethyl)-3-methyl-pyrrolidin-1-yl]-[4-(5-methyl-[1,2,4]oxadiazol-3-yl)-phenyl]-methanone], under setting [1], the Ki is 0.0261 µM.
In the case of `CC(=O)N1CCC(C(=O)N2C[C@H](c3ccc(Cl)cc3)[C@@](C)(COc3ccc(Cl)cn3)C2)CC1` (racemic) [Example 11, 1-{4-[(3RS,4RS)-4-(4-Chloro-phenyl)-3-(5-chloro-pyridin-2-yloxymethyl)-3-methyl-pyrrolidine-1-carbonyl]-piperidin-1-yl}-ethanone], the Ki (read-out: Ki (uM) hNK3) is 0.0106 µM.
On to `C[C@]1(COc2ccc(Cl)cn2)CN(C(=O)c2ccc(C#N)nc2)C[C@@H]1c1ccc(Cl)cc1` (racemic) [Example 21, 5-[(3RS,4RS)-4-(4-Chloro-phenyl)-3-(5-chloro-pyridin-2-yloxymethyl)-3-methyl-pyrrolidine-1-carbonyl]-pyridine-2-carbonitrile], for which the inhibitory constant (Ki) under setting [1] amounted to 0.039 µM.
For `CC(C)C(=O)N1CCC(C(=O)N2C[C@H](c3ccc(Cl)cc3)[C@@](C)(COc3ccc(Cl)cn3)C2)CC1` (racemic) [Example 13, 1-{4-[(3RS,4RS)-4-(4-Chloro-phenyl)-3-(5-chloro-pyridin-2-yloxymethyl)-3-methyl-pyrrolidine-1-carbonyl]-piperidin-1-yl}-2-methyl-propan-1-one], the Ki (read-out: Ki (uM) hNK3) came to 0.0087 µM.
Still for that read-out and setting: the value for `C[C@]1(COc2ccc(Cl)cn2)CN(C(=O)c2ccnc(Cl)c2)C[C@@H]1c1ccc(Cl)cc1` (racemic) [Example 5] was 0.0618 µM.
Take `C[C@]1(COc2ccc(Cl)cn2)CN(C(=O)C2CCN(c3ccc(F)cn3)CC2)C[C@@H]1c1ccc(Cl)cc1` (racemic) [Example 19, [(3RS,4RS)-4-(4-Chloro-phenyl)-3-(5-chloro-pyridin-2-yloxymethyl)-3-methyl-pyrrolidin-1-yl]-(5′-fluoro-3,4,5,6-tetrahydro-2H-[1,2′]bipyridinyl-4-yl)-methanone]: the Ki under setting [1] came to 0.0112 µM.
Turning to `C[C@]1(COc2ccc(Cl)cn2)CN(C(=O)C2CCN(c3ccc(C#N)nc3)CC2)C[C@@H]1c1ccc(Cl)cc1` (racemic) [Example 25, 4-[(3RS,4RS)-4-(4-Chloro-phenyl)-3-(5-chloro-pyridin-2-yloxymethyl)-3-methyl-pyrrolidine-1-carbonyl]-3,4,5,6-tetrahydro-2H-[1,3′]bipyridinyl-6′-carbonitrile], the Ki under setting [1] stood at 0.0044 µM.
Take `CC(C)CN1CCC(C(=O)N2C[C@H](c3ccc(Cl)cc3)[C@@](C)(COc3ccc(Cl)cn3)C2)CC1` (racemic) [Example 12, [(3RS,4RS)-4-(4-Chloro-phenyl)-3-(5-chloro-pyridin-2-yloxymethyl)-3-methyl-pyrrolidin-1-yl]-(1-isobutyl-piperidin-4-yl)-methanone]: the inhibitory constant (Ki) (read-out: Ki (uM) hNK3) is 0.0225 µM.
On the same count and under the same terms, the value for `C[C@]1(COc2ccc(Cl)cn2)CN(C(=O)C2CCN(C3CCCCC3)CC2)C[C@@H]1c1ccc(Cl)cc1` (racemic) [Example 14, [(3RS,4RS)-4-(4-Chloro-phenyl)-3-(5-chloro-pyridin-2-yloxymethyl)-3-methyl-pyrrolidin-1-yl]-(1-cyclohexyl-piperidin-4-yl)-methanone] was 0.015 µM.
`C[C@]1(COc2ccc(Cl)cn2)CN(C(=O)C2CCN(c3ccc(C#N)cn3)CC2)C[C@@H]1c1ccc(Cl)cc1` (racemic) [Example 16, 4-[(3RS,4RS)-4-(4-Chloro-phenyl)-3-(5-chloro-pyridin-2-yloxymethyl)-3-methyl-pyrrolidine-1-carbonyl]-3,4,5,6-tetrahydro-2H-[1,2′]bipyridinyl-5′-carbonitrile]: the Ki under setting [1] was 0.0037 µM.
Regarding `Cc1ccc(N2CCC(C(=O)N3C[C@H](c4ccc(Cl)cc4)[C@@](C)(COc4ccc(Cl)cn4)C3)CC2)nc1` (racemic) [Example 15, [(3RS,4RS)-4-(4-Chloro-phenyl)-3-(5-chloro-pyridin-2-yloxymethyl)-3-methyl-pyrrolidin-1-yl]-(5′-methyl-3,4,5,6-tetrahydro-2H-[1,2′]bipyridinyl-4-yl)-methanone], the Ki under setting [1] stood at 0.015 µM.
Same read-out and setting: the value for `CC(=O)c1ccc(N2CCC(C(=O)N3C[C@H](c4ccc(Cl)cc4)[C@@](C)(COc4ccc(Cl)cn4)C3)CC2)nc1` (racemic) [Example 18, 1-{4-[(3RS,4RS)-4-(4-Chloro-phenyl)-3-(5-chloro-pyridin-2-yloxymethyl)-3-methyl-pyrrolidine-1-carbonyl]-3,4,5,6-tetrahydro-2H-[1,2′]bipyridinyl-5′-yl}-ethanone] was 0.0059 µM.
As to `C[C@]1(COc2ccc(Cl)cn2)CN(C(=O)C2CCOCC2)C[C@@H]1c1ccc(Cl)cc1` (racemic) [Example 10, [(3RS,4RS)-4-(4-Chloro-phenyl)-3-(5-chloro-pyridin-2-yloxymethyl)-3-methyl-pyrrolidin-1-yl]-(tetrahydro-pyran-4-yl)-methanone], the Ki (read-out: Ki (uM) hNK3) came to 0.0874 µM.
